For experiment [1], the target named is T1, CDK2 (Homo sapiens, UniProt P24941).
T1 construct: endogenous in cells; host or cells: U251 cells (lysate)
Nature of the experiment: Drug affinity responsive target stability (DARTS) assay. The experiment is classed as binding. The settings on record: U251 lysate, C5 50 and 100 μM, pronase 30 min, versus DMSO. On the procedure:
U251 cells were plated in 10 cm dishes. After overnight, the cells were washed by precooled PBS, and lysed by NP-40 lysis buffer for 30 min. Next, lysates were centrifuged at 13000 rpm for 15 min at 4 °C, and protein concentration was determined using a BCA protein assay kit (Solarbio, PC0020). The supernatants were divided into four 50 μL aliquots and incubated with DMSO or compound C5 (50 and100μM) for 30 min at room temperature. Then, the 5 μL of Pronase (The method of preparing the stock solution is 1 μg of Pronase in 200 μg of lysate, the effect concentration which is diluted by ultrapure water to 200X/400X/600X), and the reaction was stopped by 5× loading buffer. Protein samples were boiled and analysed by using Western blot.

For experiment [2], the system named is U251 cells. The experiment in a line: Cell cycle distribution by flow cytometry. The experiment is classed as cell-based. The conditions noted are these: U251, C5 2.5, 5, 10 μM, 48 h. The procedure: (§1) U251 (1 × 10^5 cells/well) in logarithmic growth phase were transferred into 6-well microplates and cultured for 12 h. […] Annexin V-FITC/PI staining kit (Yeasen, Shanghai, China) was used to detect cell apoptosis. The cell cycle distribution was analysed by staining with a cell cycle analysis kit. Intracellular ROS levels were also detected using a ROS assay kit (Yeasen, Shanghai, China). All assays were performed as per the manufacturer’s instructions, and the stained cells were analysed by flow cytometry (Beckman Coulter, Miami, FL) to quantify apoptosis rates, cell cycle distribution, and ROS levels as appropriate.
(In general: A flow cytometer gives signals particle by particle.)

The test system of the next experiment is U251. The experiment in a line: CCK-8 cell viability assay, U251. The experiment is classed as cell-based. The settings on record: Homo sapiens, U-251, 72 h, CCK-8, 72 h, mean ± SD of three independent experiments. On the procedure:
(§2) The U87MG cell line (catalogue iCell-h224) and U251MG cell line (catalogue iCell-h219) were purchased from iCell Bioscience Inc (Shanghai) cell bank. T98G cell line was obtained from Yining Zhang’s group. All cells were cultured in DMEM supplemented with 10% (v/v) FBS and penicillin-streptomycin in a humidified incubator at 37 °C under 5% CO2. The different compounds were dissolved in DMSO at the concentration of 10 mM and diluted in serum-free medium. The GBM cells were seeded into 96-well microplates at the density of 6000 cells/well and incubated for 24 h. Fresh media supplemented with different concentrations of the compounds were added, and the cells were cultured for 72 h. The CCK-8 reagent (TargetMol, C0005) was added to each well and the cells were incubated for 4 h at 37 °C. […] the absorbance was measured at […] using a microplate reader (Genios Tecan). An untreated control group was included and its viability was set as 100%. IC50 value of the two probes was calculated using GraphPad Prism 5.0.
Background: Formazan colour is commonly taken as a measure of viable cells.

Experiment [3] deals with apoptosis-related and autophagy-related proteins in U251 cells. The experiment in a line: Western blotting of apoptosis-related and autophagy-related proteins. It counts as cell-based. The settings on record: immunoblot. On the procedure:
The protein content in the lysates was measured using a BCA protein assay kit, and 20 μg protein per sample was separated by SDS-PAGE and transferred to PVDF membranes (Merck Millipore, Burlington, MA, USA). After blocking with 5% skim milk in Tris buffered saline-Tween (TBS-T) at room temperature for 2h, the blots were incubated overnight with the following primary antibodies at 4 °C: mouse anti-GAPDH (ab8245, 1:10000), rabbit anti-Bax (ab32503, 1:5000), anti-Bcl-2 (ab32124, 1:1000), anti-caspase 3 (ab32351, 1:5000), anti-cleaved caspase 3 (ab32042, 1:500), anti-cleaved PARP-1 (ab32561, 1:1000), anti-LC3B (ab192890, 1:2000), anti-p62 (ab109012, 1:10000), anti-PARP-1 (ab32138, 1:10000). Following three washes with TBS-T, the membranes were incubated with corresponding horseradish peroxidase-conjugated secondary antibodies (1:10000) at room temperature for 90 min, and washed thrice with TBS-T. The bands were visualised using the Minichem@610 Chemiluminescence imager (SAGCEREATION, Beijing) on the chemiluminescence channel.

Another experiment concerns T98G. The experiment in a line: CCK-8 cell viability assay, T98G. The settings on record: Homo sapiens, T98G, 72 h, CCK-8, 72 h, mean ± SD of three independent experiments. The experiment is classed as cell-based. On the procedure: as §2
The test system of experiment [4] is GBM cell lines (U87, T98G, and U251). The experiment in a line: CCK-8 anti-proliferation, three GBM cell lines taken together. The conditions noted are these: read-out: IC50 values against all three GBM cell lines. The experiment is classed as cell-based. The procedure: as §2
The test system of the next experiment is LO2. Nature of the experiment: CCK-8 cytotoxicity, normal human cell line LO2. The experiment is classed as cell-based. The settings on record: L02, mean ± SD of three independent experiments.
Experiment [5] has as its system U251 cells. The experiment in a line: Transwell invasion experiment (Matrigel). It counts as cell-based. The conditions noted are these: U251, C5 2.5, 5, 10 µM, 24 h, dose-dependent. On the procedure:
Matrigel-coated transwell chambers (24-well; 8-μm pore size, Corning, New York, NY, USA) were used to evaluate the invasion capability of GBM cells. The U251 cells incubated with different doses of C5 (0, 2.5, 5, and 10 μM) for 24 h were seeded on Matrigel-coated transwell chambers at the density of 2 × 10^4/well in a serum-free medium. After culturing for 24 h, the cells that invaded through Matrigel to the lower surface of the membrane were fixed with […] and stained with 0.1% crystal violet. The cells were counted under an inverted microscope in at least 5 random fields per well.

The test system of another experiment is U87. The experiment in a line: CCK-8 cell viability assay, U87. The experiment is classed as cell-based. The conditions noted are these: Homo sapiens, U-87 MG, 72 h, CCK-8, 72 h, mean ± SD of three independent experiments. On the procedure:
as §2

The subject of experiment [6] is U251 cells. The experiment in a line: Annexin V-FITC/PI apoptosis flow cytometry. It counts as cell-based. The settings on record: U251, C5 10 μM, 48 h. On the procedure: as §1
In experiment [7] the target is T1, CDK2. The experiment in a line: Cellular thermal shift assay (CETSA). The experiment is classed as binding. The conditions noted are these: U251, C5 50 and 100 µM, 40–70 °C, compared to control group. On the procedure: U251 cells in logarithmic growth were harvested and lysed with protease inhibitors and phosphorylase inhibitors, followed by ultrasonic disruption and ice extraction for 1 h. After that, the lysate was divided into three parts evenly and incubated with DMSO, 50 µM of C5, and 100 µM of C5 for 1 h at room temperature. Subsequently, samples were heated in the PCR machine for 10 min in indicated temperature gradients (40–70 °C), respectively. Finally, samples were centrifuged at 14,000 × g for 30 min at 4 °C to remove aggregates, and the resulting supernatant was analysed with western blotting.

The subject of experiment [8] is U251 cells. Nature of the experiment: Mitochondrial membrane potential (JC-1). It counts as cell-based. The settings on record: U251, C5 2.5, 5, 10 μM, 24 h. On the procedure: U251 cells were seeded in 6-well microplates at the density of 1.5 × 10^5 cells/well and cultured overnight. Fresh medium containing different doses of C5 (0, 2.5, 5, and 10 μM) was added, and the cells were cultured for 24 h. The cells were stained using the JC-1 kit (Sigma-Aldrich, USA) according to the manufacturer’s instructions and observed by fluorescence microscopy. The changes in the ratio of the red and green fluorescence intensities were calculated to evaluate MMP.

For experiment [9], the system named is U251 multicellular tumour spheroids. Nature of the experiment: 3D spheroid assay (MCTSs, calcein-AM/PI). The experiment is classed as cell-based. The settings on record: C5 24 h, dose-dependent. On the procedure:
Malignant glioblastoma tumour cells U251 were seeded in cell-repellent 96-well U-bottom plates (Sbio™), and cultured for 72 h to allow spheroid formation. […] Spheroids were stained with PI and Calcein-AM, and observed under a fluorescence microscope.

In experiment [10] the test system is U251 cells. The experiment in a line: Intracellular ROS by flow cytometry (DCFH-DA). It counts as cell-based. The settings on record: U251, 5 μM C5, DCFH-DA. On the procedure:
U251 (1 × 10^5 cells/well) in logarithmic growth phase were transferred into 6-well microplates and cultured for 12 h. Therefore, U251 cells were treated with C5 (0, 2.5, 5, and 10 μM) for 24 h. Annexin V-FITC/PI staining kit (Yeasen, Shanghai, China) was used to detect cell apoptosis. The cell cycle distribution was analysed by staining with a cell cycle analysis kit. Intracellular ROS levels were also detected using a ROS assay kit (Yeasen, Shanghai, China). All assays were performed as per the manufacturer’s instructions, and the stained cells were analysed by flow cytometry (Beckman Coulter, Miami, FL) to quantify apoptosis rates, cell cycle distribution, and ROS levels as appropriate.

[11] abbreviates: U251, C5 treatment 24 h, concentration-dependent.

Several values for one entry are separate records, joined by “and”; a condition that tells them apart may be missing. Equal entries are not always repeated.

We go through 1 molecule from publication PMC12412324, “Design, synthesis, and evaluation of novel pinane-based thiazolidione derivatives with anti-glioblastoma activity” (Journal of Enzyme Inhibition and Medicinal Chemistry, 2025).

For `CN1C(=O)C(=Cc2ccc(O)cc2)SC1=NN=CC1=CCC2CC1C2(C)C` (stereo not shown) [C5, 2-(((6,6-Dimethylbicyclo[3.1.1]hept-2-en-2-yl)methylene)hydrazineylidene)-5–(4-hydroxybenzylidene)-3-methylthiazolidin-4-one], the “CDK2 stability to pronase digestion (DARTS)” value at CDK2 [1] is on record as “enhanced stability”. The cell cycle distribution result in the experiment on U251 cells [2] is recorded as “decrease in the G2/M population, with a concomitant increase in the S phase population”. For the same molecule, the IC50 (commonly the concentration at which inhibition is half-maximal) was 3.12 ± 0.45 µM with U251; 4.25 ± 0.38 µM in the experiment on T98G; 3.12 to 4.25 µM and < 5 µM in [4]; 43.2 ± 0.21 µM with LO2; 3.98 ± 0.34 µM with U87. The Bax expression entry in [3] (U251, C5 treatment 24 h) is “upregulation”. In experiment [3] (U251, C5 treatment 24 h), the Bcl-2 expression result is on record as “dose-dependent downregulation”. The PARP cleavage entry in [3] (setting [11]) was “enhanced”. Moreover, the caspase-3 activation result in [3] (setting [11]) was “enhanced”. Besides, the LC3B-II expression result in experiment [3] (U251, C5 treatment) was “significantly enhanced”. Besides, the P62 expression entry in experiment [3] (U251, C5 treatment) is reported as “significantly enhanced”. Besides, the “number of viable cells that invaded through the Matrigel” value in the experiment with U251 cells [5] is “significantly decreased”. The apoptosis rate in the experiment on U251 cells [6] is on record as 48.56%. The “thermal stability of CDK2 (CETSA)” value at CDK2 [7] is on record as “substantially increased”. The “mitochondrial membrane potential, JC-1 fluorescence” value in the experiment with U251 cells [8] is recorded as “dose-dependent decrease in red fluorescence”. Also, in experiment [9], the “viability of U251 cells in a 3D model” value was “decreased”. The “intracellular ROS levels” value in the experiment with U251 cells [10] was “significantly increased”.
